Assay results: the NIST ThermoML archive (doi:10.1021/acs.jced.7b00939)
Values joined by “and” are separate entries in the source; they are usually repeats but may differ in a detail not shown here. Identical values can stand only once.

Settings: Liquid, Vibrating tube method

CCCCC(CC)COC(=O)c1ccc(C(=O)OCC(CC)CCCC)c(C(=O)OCC(CC)CCCC)c1 (stereo unspecified) [tris(2-ethylhexyl) trimellitate]
Settings	mass density
328.15 K, 5110 kPa	965.697 kg/m3
328.15 K, 10110 kPa	968.884 kg/m3
328.15 K, 20120 kPa	974.939 kg/m3
328.15 K, 30110 kPa	980.701 kg/m3
333.15 K, 100 kPa	959.014 kg/m3 [middle of 4 runs]
353.15 K, 100 kPa	944.616 kg/m3 [middle of 4 runs]
363.15 K, 100 kPa	937.285 kg/m3 and 937.369 kg/m3
363.15 K, 5110 kPa	941.043 kg/m3
363.15 K, 10110 kPa	944.715 kg/m3
363.15 K, 20120 kPa	951.677 kg/m3
363.15 K, 30130 kPa	958.176 kg/m3
363.15 K, 40130 kPa	964.291 kg/m3
363.15 K, 50140 kPa	969.983 kg/m3
373.15 K, 100 kPa	930.229 kg/m3 and 930.252 kg/m3
383.15 K, 100 kPa	923.009 kg/m3 and 923.041 kg/m3 and 923.028 kg/m3
388.15 K, 100 kPa	919.579 kg/m3
388.15 K, 2640 kPa	921.672 kg/m3
388.15 K, 5170 kPa	923.804 kg/m3
388.15 K, 7730 kPa	925.892 kg/m3
388.15 K, 10170 kPa	927.866 kg/m3
388.15 K, 15260 kPa	931.875 kg/m3
388.15 K, 20280 kPa	935.659 kg/m3
388.15 K, 30390 kPa	942.915 kg/m3
388.15 K, 40500 kPa	949.605 kg/m3
388.15 K, 50560 kPa	955.87 kg/m3
388.15 K, 68700 kPa	966.125 kg/m3
393.15 K, 100 kPa	915.76 kg/m3 and 915.768 kg/m3
403.15 K, 100 kPa	908.475 kg/m3 and 908.487 kg/m3 and 908.679 kg/m3
403.15 K, 2640 kPa	910.921 kg/m3
403.15 K, 5110 kPa	912.879 kg/m3
403.15 K, 5170 kPa	913.199 kg/m3
403.15 K, 7690 kPa	915.392 kg/m3
403.15 K, 10110 kPa	917.229 kg/m3
403.15 K, 10220 kPa	917.585 kg/m3
403.15 K, 15270 kPa	921.805 kg/m3
403.15 K, 20110 kPa	925.405 kg/m3
403.15 K, 20320 kPa	925.852 kg/m3
403.15 K, 30120 kPa	932.929 kg/m3
403.15 K, 30380 kPa	933.471 kg/m3
403.15 K, 40120 kPa	939.962 kg/m3
403.15 K, 40430 kPa	940.482 kg/m3
403.15 K, 50130 kPa	946.45 kg/m3
403.15 K, 50540 kPa	947.085 kg/m3
403.15 K, 68140 kPa	957.148 kg/m3
403.15 K, 68470 kPa	957.846 kg/m3
413.15 K, 100 kPa	901.142 kg/m3 and 901.152 kg/m3
423.15 K, 100 kPa	893.777 kg/m3 and 893.78 kg/m3
423.15 K, 2590 kPa	896.162 kg/m3
423.15 K, 5100 kPa	898.654 kg/m3
423.15 K, 7590 kPa	901.053 kg/m3
423.15 K, 10100 kPa	903.407 kg/m3
423.15 K, 20110 kPa	912.286 kg/m3
423.15 K, 30120 kPa	920.442 kg/m3
423.15 K, 40120 kPa	927.911 kg/m3
423.15 K, 50120 kPa	934.915 kg/m3
423.15 K, 68140 kPa	946.287 kg/m3
